Results published in ChEMBL document CHEMBL1201862, “PubChem BioAssay data set” (2004).
Calls of active or inactive are those of the source.

Tests used:
[1] = reduction of Shn3 3'UTR-driven luciferase in osteoblasts – cell-based, Clone20 osteoblasts, firefly luciferase, cherry-picked, dose response (AID 624132); format: functional;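 further: firefly luciferase luminescence from reporter carrying the Shn3 3'UTR in osteoblasts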
[2] = Luminescence Cell-Based Dose Confirmation HTS to Identify Inhibitors of Platelet Dense Granule Release. [Related pubchem assays: 1663 (Primary HTS), 1678 (Summary of Project)]; format: functional
[3] = biological target: Luciferin 4-monooxygenase (Photinus pyralis, UniProt P08659); assay: inhibition of purified Photinus pyralis luciferase – biochemical, luminescence, dose response (AID 1891)
Luciferin 4-monooxygenase, sequence (P08659 whole entry): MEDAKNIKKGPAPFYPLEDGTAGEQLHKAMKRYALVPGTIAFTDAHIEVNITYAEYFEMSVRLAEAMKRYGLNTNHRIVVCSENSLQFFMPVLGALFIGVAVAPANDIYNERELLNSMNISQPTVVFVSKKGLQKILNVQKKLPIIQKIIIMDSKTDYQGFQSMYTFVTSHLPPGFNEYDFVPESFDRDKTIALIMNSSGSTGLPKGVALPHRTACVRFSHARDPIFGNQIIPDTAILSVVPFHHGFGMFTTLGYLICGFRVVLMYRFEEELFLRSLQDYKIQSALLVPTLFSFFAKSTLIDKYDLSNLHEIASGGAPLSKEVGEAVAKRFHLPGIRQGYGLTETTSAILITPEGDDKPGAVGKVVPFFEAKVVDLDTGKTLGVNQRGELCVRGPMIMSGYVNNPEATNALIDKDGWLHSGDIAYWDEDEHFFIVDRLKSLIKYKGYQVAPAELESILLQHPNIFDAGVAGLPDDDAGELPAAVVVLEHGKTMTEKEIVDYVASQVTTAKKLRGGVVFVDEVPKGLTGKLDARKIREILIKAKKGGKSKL

Protein skinhead-1 = biological target: T1, Protein skinhead-1 (Caenorhabditis elegans, UniProt P34707); format: functional
T1 sequence (P34707 whole entry): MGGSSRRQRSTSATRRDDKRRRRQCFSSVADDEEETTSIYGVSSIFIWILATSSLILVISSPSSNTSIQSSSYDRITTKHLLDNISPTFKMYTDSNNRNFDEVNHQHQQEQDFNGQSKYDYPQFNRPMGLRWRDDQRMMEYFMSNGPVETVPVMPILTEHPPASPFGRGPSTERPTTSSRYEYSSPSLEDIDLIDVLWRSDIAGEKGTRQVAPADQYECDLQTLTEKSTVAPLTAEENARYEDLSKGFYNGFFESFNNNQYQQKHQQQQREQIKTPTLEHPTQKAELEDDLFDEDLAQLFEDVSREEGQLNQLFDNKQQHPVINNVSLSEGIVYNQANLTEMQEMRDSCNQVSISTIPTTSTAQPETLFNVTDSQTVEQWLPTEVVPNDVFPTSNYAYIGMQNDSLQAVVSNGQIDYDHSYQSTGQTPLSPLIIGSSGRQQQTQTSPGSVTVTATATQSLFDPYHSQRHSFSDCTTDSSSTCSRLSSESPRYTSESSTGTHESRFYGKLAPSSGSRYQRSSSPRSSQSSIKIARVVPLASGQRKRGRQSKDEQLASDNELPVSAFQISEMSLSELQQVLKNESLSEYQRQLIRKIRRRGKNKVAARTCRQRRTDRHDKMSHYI

Cytochrome P450 3A4 = Cytochrome P450 3A4 (Homo sapiens, UniProt P08684);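 further: CYP3A4 tested as one member of a cytochrome P450 panel screen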
Cytochrome P450 3A4, sequence (P08684 whole entry): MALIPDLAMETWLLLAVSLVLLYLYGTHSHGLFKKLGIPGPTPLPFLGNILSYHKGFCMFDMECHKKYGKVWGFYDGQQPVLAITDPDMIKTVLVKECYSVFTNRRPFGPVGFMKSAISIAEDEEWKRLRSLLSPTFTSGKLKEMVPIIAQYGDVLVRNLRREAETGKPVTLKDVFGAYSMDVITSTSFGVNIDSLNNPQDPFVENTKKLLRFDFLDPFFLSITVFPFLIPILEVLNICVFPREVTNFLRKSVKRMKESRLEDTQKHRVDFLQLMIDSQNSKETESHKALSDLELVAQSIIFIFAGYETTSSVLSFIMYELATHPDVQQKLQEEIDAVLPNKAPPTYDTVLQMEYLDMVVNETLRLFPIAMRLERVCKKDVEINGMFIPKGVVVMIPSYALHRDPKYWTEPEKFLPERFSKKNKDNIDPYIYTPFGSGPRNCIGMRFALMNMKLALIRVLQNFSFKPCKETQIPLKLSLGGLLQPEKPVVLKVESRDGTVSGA

Cytochrome P450 2C19 = Cytochrome P450 2C19 (Homo sapiens, UniProt P33261); assay: Cytochrome panel assay with activity outcomes. Panel member name: p450-cyp2c19 Compounds with AC50 equal or less than 10 uM are considered active; format: functional
Cytochrome P450 2C19, sequence (P33261 whole entry): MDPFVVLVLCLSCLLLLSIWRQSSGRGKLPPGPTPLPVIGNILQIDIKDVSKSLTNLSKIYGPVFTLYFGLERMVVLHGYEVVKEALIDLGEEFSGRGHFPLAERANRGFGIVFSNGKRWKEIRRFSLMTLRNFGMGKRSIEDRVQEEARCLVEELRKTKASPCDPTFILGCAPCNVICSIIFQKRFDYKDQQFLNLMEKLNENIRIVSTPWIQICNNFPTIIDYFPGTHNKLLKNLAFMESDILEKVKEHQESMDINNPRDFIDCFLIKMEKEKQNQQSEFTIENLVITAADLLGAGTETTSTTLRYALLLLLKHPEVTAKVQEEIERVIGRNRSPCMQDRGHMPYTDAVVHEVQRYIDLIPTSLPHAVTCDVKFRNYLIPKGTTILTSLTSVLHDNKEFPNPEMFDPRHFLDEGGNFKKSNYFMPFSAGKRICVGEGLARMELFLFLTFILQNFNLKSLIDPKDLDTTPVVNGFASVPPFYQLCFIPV

[4] = biological target: T2, Calpain-2 catalytic subunit (Sus scrofa, UniProt P43367); assay: m-calpain protease blockers, concentration series – biochemical, fluorogenic peptide substrate, dose response (AID 1420); format: functional
T2 sequence (P43367 whole entry): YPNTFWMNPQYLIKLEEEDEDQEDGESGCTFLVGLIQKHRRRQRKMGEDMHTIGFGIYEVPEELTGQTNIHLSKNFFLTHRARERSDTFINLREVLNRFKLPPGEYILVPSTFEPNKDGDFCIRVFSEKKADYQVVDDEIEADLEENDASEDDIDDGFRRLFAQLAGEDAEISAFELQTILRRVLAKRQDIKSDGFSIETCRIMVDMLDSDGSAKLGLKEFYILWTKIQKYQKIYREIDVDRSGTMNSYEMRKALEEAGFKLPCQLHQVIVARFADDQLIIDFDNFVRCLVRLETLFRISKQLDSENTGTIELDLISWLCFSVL

Cytochrome P450 1A2 = biological target: T3, Cytochrome P450 1A2 (Homo sapiens, UniProt P05177);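 further: PubChem cytochrome P450 panel assay, CYP1A2 panel member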
T3 sequence (P05177 whole entry): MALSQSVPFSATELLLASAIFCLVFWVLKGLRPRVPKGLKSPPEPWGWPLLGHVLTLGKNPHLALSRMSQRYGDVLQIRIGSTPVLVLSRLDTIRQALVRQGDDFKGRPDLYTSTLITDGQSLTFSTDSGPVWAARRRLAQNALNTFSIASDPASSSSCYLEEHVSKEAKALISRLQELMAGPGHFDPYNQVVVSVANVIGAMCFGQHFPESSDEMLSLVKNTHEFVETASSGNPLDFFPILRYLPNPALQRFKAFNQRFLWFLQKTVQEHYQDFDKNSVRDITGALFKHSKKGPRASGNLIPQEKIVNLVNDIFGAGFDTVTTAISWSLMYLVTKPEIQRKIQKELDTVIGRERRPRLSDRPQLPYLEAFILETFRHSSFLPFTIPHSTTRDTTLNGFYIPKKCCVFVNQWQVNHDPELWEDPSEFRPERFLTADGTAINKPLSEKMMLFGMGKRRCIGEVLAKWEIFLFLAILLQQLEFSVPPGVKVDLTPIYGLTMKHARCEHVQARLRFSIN

Cytochrome P450 2D6 = Cytochrome P450 2D6 (Homo sapiens, UniProt P10635);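 further: CYP2D6 member of a cytochrome P450 panel assay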
Cytochrome P450 2D6, sequence (P10635 whole entry): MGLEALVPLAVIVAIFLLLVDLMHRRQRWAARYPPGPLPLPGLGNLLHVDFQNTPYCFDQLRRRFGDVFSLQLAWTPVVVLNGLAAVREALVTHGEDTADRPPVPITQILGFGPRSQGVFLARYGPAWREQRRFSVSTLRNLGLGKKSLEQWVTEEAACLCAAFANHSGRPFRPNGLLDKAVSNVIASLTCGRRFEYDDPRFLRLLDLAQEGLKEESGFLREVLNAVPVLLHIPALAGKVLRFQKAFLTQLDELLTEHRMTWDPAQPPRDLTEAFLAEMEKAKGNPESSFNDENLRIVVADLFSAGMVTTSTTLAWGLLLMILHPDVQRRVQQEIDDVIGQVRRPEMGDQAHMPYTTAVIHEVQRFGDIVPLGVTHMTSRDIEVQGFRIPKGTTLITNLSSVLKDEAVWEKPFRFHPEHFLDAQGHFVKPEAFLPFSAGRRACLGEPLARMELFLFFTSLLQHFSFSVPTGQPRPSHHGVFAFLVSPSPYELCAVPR

[5] = biological target: T4, Corticotropin-releasing factor receptor 2/Corticotropin-releasing factor-binding protein (Homo sapiens, UniProt P24387+Q13324); assay: activators of CRF receptor 2 with binding protein – uHTS hits, confirmation (AID 602473); format: functional; conditions: read-out: EC50_Mean
T4 sequence (Q13324 whole entry): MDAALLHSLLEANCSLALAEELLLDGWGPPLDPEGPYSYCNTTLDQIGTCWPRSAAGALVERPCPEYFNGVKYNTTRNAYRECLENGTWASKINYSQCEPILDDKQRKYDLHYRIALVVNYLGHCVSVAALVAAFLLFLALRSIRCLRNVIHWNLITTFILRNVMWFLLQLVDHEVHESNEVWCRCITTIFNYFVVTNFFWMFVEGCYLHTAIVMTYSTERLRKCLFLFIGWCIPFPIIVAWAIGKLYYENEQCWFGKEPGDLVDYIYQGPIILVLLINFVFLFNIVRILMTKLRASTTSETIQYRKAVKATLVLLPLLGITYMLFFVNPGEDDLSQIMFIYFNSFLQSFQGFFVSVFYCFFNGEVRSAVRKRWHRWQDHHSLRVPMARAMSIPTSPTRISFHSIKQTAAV
T4 sequence (P24387 whole entry): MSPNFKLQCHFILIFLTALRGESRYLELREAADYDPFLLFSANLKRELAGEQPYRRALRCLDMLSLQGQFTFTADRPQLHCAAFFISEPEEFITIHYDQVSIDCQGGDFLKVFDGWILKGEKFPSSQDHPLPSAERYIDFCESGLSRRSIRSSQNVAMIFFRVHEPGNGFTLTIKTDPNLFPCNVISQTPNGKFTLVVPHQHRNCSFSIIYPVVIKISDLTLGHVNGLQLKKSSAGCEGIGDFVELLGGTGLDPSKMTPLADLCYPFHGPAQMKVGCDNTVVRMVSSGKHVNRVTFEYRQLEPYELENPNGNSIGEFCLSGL

cells = format: functional
[6] = test system: Streptococcus sp. 'group A'; assay: Streptococcus pyogenes SK(-)GAS viability under kanamycin – luminescence, BacTiterGlo, confirmation, counter-screen for streptokinase expression inhibitor project, dose response (AID 1900); format: functional, organism-based
Streptococcus = assay: GAS UMAA2166 growth inhibition – luminescence, BacTiterGlo, counter-screen for streptokinase expression inhibitor project, dose response (AID 1915); format: functional, organism-based;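 further: potency for reduction of bacterial viability or growth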
[7] = Luminescence Cell-Based Dose Retest to Confirm Inhibitors of Cancer Stem Cells. [Related pubchem assays (depositor defined):AID2717, AID2721]; format: functional; conditions: Homo sapiens
Streptokinase A = biological target: T5, Streptokinase A (Streptococcus pyogenes serotype M1, UniProt P10520); assay: viability-normalized secreted streptokinase activity reduction – plasminogen activation absorbance, OD405, dose response (AID 1914); format: functional, Streptococcus pyogenes M1 GAS;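 further: secreted streptokinase activity via plasminogen activation per viability signal from cell pellet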
T5 sequence (P10520 whole entry): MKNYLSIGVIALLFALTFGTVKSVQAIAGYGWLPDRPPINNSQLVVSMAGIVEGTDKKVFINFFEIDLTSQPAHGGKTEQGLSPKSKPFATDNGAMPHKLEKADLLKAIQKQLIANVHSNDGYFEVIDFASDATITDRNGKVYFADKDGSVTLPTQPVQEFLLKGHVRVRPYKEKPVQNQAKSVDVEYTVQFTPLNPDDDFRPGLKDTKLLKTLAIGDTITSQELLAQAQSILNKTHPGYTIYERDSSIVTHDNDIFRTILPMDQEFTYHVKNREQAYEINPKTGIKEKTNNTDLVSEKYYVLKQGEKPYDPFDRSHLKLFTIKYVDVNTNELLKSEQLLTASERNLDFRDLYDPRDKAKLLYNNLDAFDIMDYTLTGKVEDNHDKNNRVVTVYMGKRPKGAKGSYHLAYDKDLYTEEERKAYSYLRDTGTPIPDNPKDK

Compound: Cc1ccc(C)c(N2CCN(S(=O)(=O)c3ccc4nc(O)ccc4c3)CC2)c1
- AC50 [1]: 24.2 µM (active)

Compound: O=S(=O)(Nc1ccc(-c2ccc3nncn3n2)cc1)c1ccccc1Cl
- EC50 [2]: 51.9 µM (active)
- EC50 [3]: > 112 µM (not active)

Compound: O=C(NC1CCCCC1)N1CCC(c2nc(-c3ccc(S(=O)(=O)N4CCCC4)cc3)no2)CC1
- EC50 [2]: > 112 µM (not active)
- EC50 [3]: > 112 µM (not active)

Compound: Clc1ccc(CNc2ccc3nnc(-c4ccccc4)n3n2)cc1
- EC50 [2]: > 112 µM (not active)
- EC50 [3]: > 112 µM (not active)

Compound: Cc1ccccc1C(=O)NC(CC(C)C)C(=O)Nc1ccc(S(N)(=O)=O)cc1 (centres undefined)
- EC50 [2]: > 112 µM (not active)
- EC50 [3]: > 112 µM (not active)

Compound: Cc1c(Cl)cccc1NC(=O)CC1NCCNC1=O (centres undefined)
- IC50 (Protein skinhead-1): > 100 µM (inactive)
- AC50 (Cytochrome P450 3A4): 20 µM (inconclusive)
- AC50 (Cytochrome P450 2C19; read-out: AC50): 39.8 µM (inconclusive)

Compound: CC(/C=C(\O)c1ccc(C)cc1)=N\c1cccc(O)c1
- IC50 [4]: 4.68 µM (not active)

Compound: O=c1c2ccccc2ncn1-c1ccc(Cl)cc1Cl
- IC50 (Protein skinhead-1): > 100 µM (inactive)

Compound: CC(C)c1onc(C(=O)Nc2cccnc2Cl)c1[N+](=O)[O-]
- IC50 [4]: 22.5 µM (not active)

Compound: Cc1ccc(CNC(=O)c2ccc3c(=O)n(CC4CCCO4)c(=S)[nH]c3c2)cc1 (centres undefined)
- IC50 [4]: 1.19 µM (not active)

Compound: CCN(CC(=O)NCc1ccc(F)cc1)Cc1nc(O)c2ccc(Cl)cc2n1
- IC50 (Protein skinhead-1): > 100 µM (inactive)

Compound: COc1ccc2[nH]cc(CCNc3ncnc4ccc(-c5ccc(C(=O)N(C)C)cc5)cc34)c2c1
- AC50 (Cytochrome P450 1A2): 12.6 µM (inconclusive)
- AC50 (Cytochrome P450 2D6): 25.1 µM (inconclusive)

Compound: Cc1cc(/C=C(\C#N)C(=O)Nc2ccc(F)cc2)c(C)n1-c1ccc(N2CCOCC2)c([N+](=O)[O-])c1
- IC50 (Protein skinhead-1): > 100 µM (inactive)

Compound: CSc1nnc(C)c(/C=C/Nc2ccc(C)cc2)n1
- EC50 [5]: 14.9 µM (active)

Compound: CCOc1ccc(Nc2ccc([N+](=O)[O-])c3nonc23)cc1
- IC50 (Protein skinhead-1): > 100 µM (inactive)
- IC50 (cells): 5.59 µM (active)

Compound: CC1(C)N=C(N)N=C(N)N1c1cccc(OCc2cccc([N+](=O)[O-])c2)c1
- AC50 (Cytochrome P450 1A2): 5.01 µM (inconclusive)
- AC50 (Cytochrome P450 2C19): inconclusive
- AC50 (Cytochrome P450 2D6): 3.16 µM (inconclusive)

Compound: O=C(N/N=C/c1cccnc1)c1ccc([N+](=O)[O-])cc1
- AC50 (Cytochrome P450 2D6): 14.1 µM (inconclusive)

Compound: Cc1ccc(/C=C2/C(=O)NC(=O)N(CCc3ccc(F)cc3)C2=O)s1
- IC50 (cells): 39.2 µM (active)

Compound: O=C(CCCCl)Oc1ccc2cc(-c3ccc4ccccc4n3)c(=O)oc2c1
- EC50 [5]: 13.7 µM (active)

Compound: Cc1ccc2nc(C)c3c(c2c1)COC3
- IC50 (cells): > 50 µM (active)

Compound: CSc1nc2c(c(-c3ccc(O)cc3)c1C#N)CCC2
- EC50 [2]: > 112 µM (not active)
- EC50 [3]: > 112 µM (not active)

Compound: CCCN1CCc2cccc3c2[C@@H]1Cc1ccc(O)c(O)c1-3
- AC50 (Cytochrome P450 3A4): 12.6 µM (inconclusive)
- AC50 (Cytochrome P450 2D6): 10 µM (inconclusive)

Compound: COC(=O)c1cc2sccc2n1Cc1ccc(C)cc1
- IC50 (Protein skinhead-1): > 100 µM (inactive)

Compound: CN(C)c1ccc(-c2cncnc2NCc2cccs2)cc1
- AC50 (Cytochrome P450 2D6): 39.8 µM (inconclusive)

Compound: O=C(c1ccc(F)cc1)c1cc2ccc(O)cc2oc1=O
- EC50 [2]: 0.457 µM (active)
- EC50 [6]: 10.7 µM (active)
- EC50 (Streptococcus): 15.7 µM (active)
- EC50 [3]: 0.731 µM (active)

Compound: COc1ccc(/C=N/N=C(\N)c2nonc2N)cc1
- EC50 [2]: 2.67 µM (active)
- EC50 [3]: 3.82 µM (active)

Compound: CCn1nc(CCC(=O)O)c2ccccc2c1=O
- IC50 (Protein skinhead-1): > 100 µM (inactive)

Compound: COc1ccc(C(NC(=O)c2ccc(-c3ccccc3)cc2)c2ccccc2)cc1 (centres undefined)
- IC50 [4]: > 50 µM (not active)

Compound: Cc1ccc(NC(=O)CSc2nsc(SCC(=O)Nc3ccc(C)cc3C)c2C#N)c(C)c1
- IC50 [4]: > 50 µM (not active)

Compound: CN(CCc1ccccn1)C(=S)NC(=O)c1ccco1
- IC50 [4]: 19 µM (not active)

Compound: NS(=O)(=O)c1ccc(CCNC(=O)COC(=O)CCc2c[nH]c3ccccc23)cc1
- EC50 [5]: 22 µM (active)

Compound: COc1ccc(C2=Nc3cccc4cccc(c34)N2)cc1
- AC50 (Cytochrome P450 2D6): 1.41 µM (inconclusive)

Compound: O=c1cc(N2CCCCC2)c(-c2ccccc2)nn1Cc1cccc(F)c1
- AC50 [7]: 4.74 µM (active)
- IC50 [4]: > 50 µM (not active)

Compound: O=C(O)[C@@H]1[C@@H]2C[C@H]3c4[nH]c5ccccc5c4CCN3C[C@@H]2CC[C@@H]1O
- AC50 (Cytochrome P450 1A2): 12.6 µM (inconclusive)
- AC50 (Cytochrome P450 2D6): 7.94 µM (inconclusive)

Compound: CNC(=O)c1c(NC(=O)c2ccc(N3C(=O)CCC3=O)cc2)sc2c1CCC(C)C2 (centres undefined)
- EC50 (Streptokinase A): > 150 µM (not active)
- EC50 [6]: 20.7 µM (active)
- EC50 (Streptococcus): 103 µM (active)
- IC50 (Protein skinhead-1): > 100 µM (inactive)

Compound: O=C(NCCCN1CCOCC1)C1(c2ccccc2)CCCC1
- EC50 [2]: > 112 µM (not active)
- EC50 [3]: > 112 µM (not active)

Compound: O=C(CCN1CCC(c2ccccc2)C1)c1ccccc1 (centres undefined)
- IC50 (cells): 31.7 µM (active)
